Assay [1] concerns platelet-poor plasma (PPP). Nature of the assay: In vitro aPTT clotting time in platelet-poor plasma. Also noted: species or system human. On the procedure: Figure 2 Effects of CSL on clotting time. (A) Platelet-poor plasma (PPP) was incubated with the indicated concentrations of CSL or rivaroxaban (Riva) for 15 min. (B) One hour after administering DMSO, CSL, or Riva, blood was collected from the mice, and PPP was obtained. Then, in vitro aPTT (A) or ex vivo aPTT was measured, as described in the Methods sections. Data are shown as mean values ± SD of five independent experiments. * p < 0.05 vs. D. D = 0.2% DMSO, used as the vehicle control.
Ten fasting healthy volunteers (aged 24–28; six women and four men) who were free of allergies, cardiovascular problems, carbohydrate, or lipid metabolic abnormalities and had not taken any morning medication had their blood samples taken. None of our subjects used addictive drugs or antioxidant food supplements, and their diets were well balanced. The plasma from the blood samples was immediately spun down (1300× g for 15 min) to separate it from sodium citrate (10.9 mM) and pooled for the following investigations. Next, human blood samples were spun down at room temperature to rapidly separate the PRP. The PRP concentration was adjusted to 1 × 10^9 platelets/mL using a hemocytometer. After being rinsed once in HEPES buffer containing 1 mM CaCl2, the PRP pellet was maintained at room temperature for an additional 30 min. Then, 10 mL of the platelet samples were utilized to measure each clotting time point. The IRB of Kyungpook National University Hospital (Daegu, Republic of Korea) approved this study protocol (KNUH 2012-01-010).
Plasma was taken by centrifuging blood (2000× g for 10 min) at room temperature following dimethyl sulfoxide (DMSO) or CSL administration for 1 h to assess PT and aPTT using a thrombotimer (Behnk Elektronik, Norderstedt, Germany). Micronized silica was utilized as an activator for the aPTT test. Briefly, 100 μL of platelet-poor plasma (PPP) and 100 μL of aPTT assay reagent were combined for 1 min at 37 °C, 100 µL of CaCl2 (20 mM) was added, and the clotting times were noted. […] Next, the clotting time was measured.

The next assay concerns the target Trypsin. Nature of the assay: Inhibitory constant, chromogenic substrate assay. In kind it is biochemical, human. How it is done: (§1) Ki values were calculated based on chromogenic substrate experiments. CSL was employed in each assay at a minimum of seven concentrations in duplicate to obtain an inhibition curve. A total of 50 μL of substrate was combined with 25 μL of each chemical solution, inhibitor solution, or blank buffer. Before the plate was allocated into the Labsystems IEMS microtiter plate reader (Cergy Pontoise, France), 25 μL of the enzyme solution was mixed. The plate was allowed for 1 h at 37 °C before analysis. We continuously observed the formation of p-nitroaniline produced when the substrate was hydrolyzed using spectrophotometry at 405 nm. The maximum initial reaction rates were computed as the millioptical density per minute. A Dixon plot of 1/Vmax versus inhibitor concentration was used to fit the curve and determine the Ki values.

The subject of the next assay is platelets. As to the kind of experiment: P-selectin and PAC-1 expression, flow cytometry. The settings on record: platelets activated by ADP or U46619; CSL 10 or 20 μM. In kind it is cell-based, human. On the procedure: Figure 7 Effects of CSL on the expression of P-selectin and PAC-1 and the production of NO and ET-1. (A) Rinsed platelets were incubated with DMSO or CSL (10 or 20 μM) for 3 min at 37 °C, and stimulation of ADP ((A,C) 10 μM) or U46619 ((B,D) 6 μM) was given for 6 min. The expressions of P-selectin and PAC-1 (A,B) and the production of NO and ET-1 (C,D) were measured as described in the Methods section. Data are shown as mean values ± SD of five independent experiments. * p < 0.05 vs. (A,C) ADP or (B,D) U46619 alone. D = 0.2% DMSO, used as the vehicle control.
PAC-1 and P-selectin expression levels were assessed by modifying accepted techniques. Briefly, 20 μL of DMSO or CSL (10 to 20 μM) were incubated with 0.5 mL of cleaned platelets (2 × 10^8 platelets/mL) for 3 min. The platelet suspension was refrigerated at 4 °C after stimulation with ADP (10 μM) or U46619 (6 μM) for 6 min at 37 °C. Subsequently, 50 μL of the sample was mixed with activation-specific anti-PAC-1 and anti-CD61-PE in saturated concentrations, and the mixture was then incubated for 25 min in the dark to determine the expression of PAC-1. […] Finally, 5000 events were evaluated for each sample. The mean fluorescence intensities from each channel were expressed using BD Accuri C6 software (BD Biosciences, San Diego, CA, USA). […]

The next assay has as its target T1, Plasmin (Homo sapiens, UniProt P00747).
T1 construct: S-2251 for plasmin; purchased Haematologic Technologies (Essex Junction, VT, USA)
As to the kind of experiment: Inhibitory constant, chromogenic substrate assay. In kind it is biochemical. On the procedure: as §1

In assay [2] the test system is FeCl3-induced carotid artery thrombosis. As to the kind of experiment: FeCl3-induced carotid artery thrombosis model. The conditions noted are these: mice. It is filed as in vivo, mouse. On the procedure:
A mouse model of FeCl3-induced thrombosis was created and used. Male C57BL/6 mice were starved for the entire night before receiving intravenous injections of the relevant drug in 0.2 mL of DMSO and were allowed to sleep. The carotid artery of the animal was exposed. The adventitial surface was covered with a cotton thread (200 μm in diameter) soaked in FeCl3 solution (0.25 M) for 5 min. The wound was flushed with saline solution once the thread had been removed. […] We measured the size and rate of thrombus formation, and we graded our results as follows: no thrombus or small thrombus (75–50 μm), medium thrombus (150–100 μm), massive thrombus (300–200 μm), and more than three thrombi. It was also noted how long it took for an extensive thrombus to obstruct the carotid artery following endothelial damage caused by FeCl3.

T1 sequence (P00747 581-810 limits assumed): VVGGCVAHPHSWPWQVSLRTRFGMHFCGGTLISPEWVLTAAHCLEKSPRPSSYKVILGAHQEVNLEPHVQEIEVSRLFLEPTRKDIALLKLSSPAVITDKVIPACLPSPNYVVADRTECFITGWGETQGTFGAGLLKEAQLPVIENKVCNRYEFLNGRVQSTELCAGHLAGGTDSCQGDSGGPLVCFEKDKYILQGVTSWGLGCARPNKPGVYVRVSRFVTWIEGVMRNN
T1 sequence (P00747 97-580 partner limits assumed): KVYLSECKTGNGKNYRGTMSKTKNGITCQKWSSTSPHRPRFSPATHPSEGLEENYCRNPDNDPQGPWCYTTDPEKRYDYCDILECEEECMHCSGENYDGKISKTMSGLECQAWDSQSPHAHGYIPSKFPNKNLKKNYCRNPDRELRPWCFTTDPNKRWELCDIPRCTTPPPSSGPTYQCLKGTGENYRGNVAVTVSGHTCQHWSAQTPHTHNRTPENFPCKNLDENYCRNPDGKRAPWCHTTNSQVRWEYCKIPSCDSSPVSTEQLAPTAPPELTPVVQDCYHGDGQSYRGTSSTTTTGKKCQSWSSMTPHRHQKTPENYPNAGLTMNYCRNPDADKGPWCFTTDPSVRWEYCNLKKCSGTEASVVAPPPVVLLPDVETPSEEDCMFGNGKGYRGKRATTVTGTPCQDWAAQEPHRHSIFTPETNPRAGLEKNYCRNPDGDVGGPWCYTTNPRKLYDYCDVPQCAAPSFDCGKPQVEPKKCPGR

`COc1cc(-c2cc(=O)c3c(O)c(OC)c(OC)cc3o2)ccc1O` [CSL, 4,5-dihydroxy-3,6,7-trimethoxyflavone]: the “concentration that doubled the clotting time (in vitro aPTT)” value in assay [1] (PPP incubated 15 min) was 7.23 µM. For the same compound, the aPTT in vitro entry in assay [1] (doses between 5 and 20 M) is “considerably slowed the aPTT”. For the same compound, the Ki at Trypsin and on Plasmin was above 300 µM throughout. Further, the “Ratio = Ki enzyme/Ki Factor Xa” value in the assay with Trypsin and at Plasmin was above 100 in each case. In addition, the “expression of P-selectin and PAC-1” value in the assay with platelets is listed as “reduced the expression”. In addition, the Scored thrombus formation in assay [2] (0.13 mg/kg intravenous) came to 3.7 ± 0.2; in assay [2] (0.26 mg/kg intravenous), 2.7 ± 0.1; in assay [2] (0.51 mg/kg intravenous), 1.8 ± 0.1. The “Time to Large Thrombus Formation” value is given as 13.1 ± 1.1 min in assay [2] (0.13 mg/kg intravenous), 27.2 ± 2.1 min in assay [2] (0.26 mg/kg intravenous) and 51.4 ± 3.1 min in assay [2] (0.51 mg/kg intravenous).

By Ki is commonly meant a dissociation constant, usually derived from enzyme kinetics or from competition with a known ligand. Lower therefore signals a stronger hold on the target.
